In patent publication US20180214423A1, “PHARMACEUTICAL COMPOSITION COMPRISING RAPAMYCIN OR DERIVATIVE THEREOF, AND METHOD FOR PRODUCING THE SAME” (NIPPON KAYAKU KABUSHIKI KAISHA, priority 2015, published 2018):

Assays:
[1] = cited from earlier work
[2] = Test Example B1: preservation stability of everolimus compositions and active pharmaceutical ingredient, residual everolimus by HPLC; type: physicochemical; conditions: light-shielded, 60° C.
Experimental: It is to be noted that, in the analysis using liquid chromatography (HPLC) in the present test examples, the measurement was carried out under the following conditions. • Measurement column: Zorbax Eclipse XDB-C18, Rapid resolution HT, 100 mm ×4.6 mm, L8 μm • Detector: ultraviolet absorption spectrophotometer (measurement wavelength: 278 nm) • Column temperature: 45° C. • Mobile phase A: 0.1% formic acid; mobile phase B: methanol/acetonitrile=50/50 • Concentration gradient of mobile phase:
The pharmaceutical compositions obtained by the methods of Example B1 and Comparative Examples B1 to B4 (approximately 1 g each) and the active pharmaceutical ingredient of everolimus (100 mg) were each collected in a brown sample bottle, and were then preserved under light-shielded conditions at 60° C., in a desiccator, the humidity of which had been adjusted with a saturated cobalt chloride aqueous solution (relative humidity: approximately 49%), while the bottle was uncapped.
The residual amounts of everolimus 10 days and 14 days after initiation of the preservation test were measured by liquid chromatography (HPLC), and the residual percentages of everolimus at individual time points were then calculated. It is to be noted that the residual percentage was calculated according to the following formula. The results are shown in Table 5. • Residual percentage (%) of everolimus (peak area of everolimus measured by HPLC at each time point/weighed value of powders)/(peak area of everolimus measured by HPLC before preservation (initial)/weighed value of powders)× 100.

decomposition reaction such as oxidation on preservation (in words) ([2]; relative humidity approximately 49%)	Residual percentage (%) of everolimus, Value on Day 10 ([2]; relative humidity approximately 49% (saturated cobalt chloride), uncapped, Day 10) [%]	Residual percentage (%) of everolimus, Value on Day 14 ([2]; relative humidity approximately 49% (saturated cobalt chloride), uncapped, Day 14) [%]	SMILES	critical relative humidity at 25° C. [1]
			OC[C@@H](O)[C@@H](O)[C@H](O)[C@@H](O)CO [sorbitol]	approximately 70%
			OC[C@@H](O)[C@@H](O)[C@H](O)[C@H](O)CO [mannitol]	≥ 95%
			OC[C@H]1O[C@@H](O[C@H]2[C@H](O)[C@@H](O)C(O)O[C@@H]2CO)[C@H](O)[C@@H](O)[C@H]1O (stereo partly shown) [lactose]	≥ 95%
rapidly progresses	5	2	CO[C@H]1C[C@@H]2CC[C@@H](C)[C@@](O)(O2)C(=O)C(=O)N2CCCC[C@H]2C(=O)O[C@H]([C@H](C)C[C@@H]2CC[C@@H](OCCO)[C@H](OC)C2)CC(=O)[C@H](C)/C=C(\C)[C@@H](O)[C@@H](OC)C(=O)[C@H](C)C[C@H](C)/C=C/C=C/C=C/1C [40-O-(2-hydroxyethyl)rapamycin]	
			OC[C@H]1O[C@H](O[C@H]2O[C@H](CO)[C@@H](O)[C@H](O)[C@H]2O)[C@H](O)[C@@H](O)[C@@H]1O [trehalose]	≥ 95%
